This is an account of results in patent publication US20240390403A1, “COMPOSITION AND METHODS FOR TREATING AN ANEURYSM” (Nectero Medical, Inc., priority 2023, published 2024).

For the experiment, the system named is porcine abdominal aortas. Put plainly: opening angle experiment on porcine abdominal aortic rings. The conditions noted are these: for statistical analysis of opening angles (ANOVA): Example 13, 50-fold dilution (0.05 mM; Glutaraldehyde 0.5% in PBS, pH 7.4), n=9 rings. As to the method:
In this study, compounds of this disclosure were added to abdominal aortas in an opening angle experiment to determine how they would affect the aorta in vitro. Thus, to understand the ability of the compounds of this disclosure to bind to aortic elastin and determine their ability to affect the aorta and aneurysms.
Twelve porcine abdominal aortas were ordered and received. The infra-renal sections of these aortas were dissected, cleaned, rinsed, and then cut into rings measuring 3 mm in width. […] These rings were mixed up before testing to randomize them based on their location in the artery. They were then stored in 500 ml of saline. Analog solutions were prepared at the same molar concentration, but they were not normalized for gallic acid content as indicated in Table 1. These solutions of analogs were made using a solution containing about 26% iopamidol, a radioopaque contrast agent. […] All solutions were prepared one day prior to their use. […] For each solution, 6 aortic rings were placed in a pre-labeled 50 ml conical tube containing 20 ml of the solution, resulting in a volume to tissue ratio of approximately 3.3 ml of solution per ring. The tubes were then incubated at room temperature for 3 hours, with rotation every 30-40 minutes.
After the treatment, while still in the tube, the solution was decanted, and the rings were rinsed three times in PBS and then suspended in PBS. The rings were placed in a 6-well plate, with 2 rings per well and 3 ml of PBS in each well. Each ring was opened with a single cut using fine scissors and laid back in the well. The rings were allowed 15 minutes to recoil in the PBS at room temperature, with gentle shaking every 5 minutes.
Photographs of the rings were taken, and their opening angles were measured using Image J software. The data were then plotted and statistical analyses were performed for comparison.
All solutions were prepared one day prior to their use.
For this experiment, nine aortic rings were placed in 30 ml of a pre-prepared solution within a 50 ml conical tube. […] The tubes were then incubated at room temperature for 3 hours, with rotations occurring every 30-40 minutes. After the incubation period, while still in the tubes, the solution was poured off, and the rings were rinsed three times with PBS and then left suspended in PBS. The rings were then transferred to a 6-well plate, with 2 rings per well and 3-4 ml of PBS in each well. Each ring was opened with a single cut using fine scissors and laid flat in the well. They were allowed to recoil for 15 minutes in PBS at room temperature, with gentle shaking every 5 minutes. Photographs were taken, and the opening angle was measured using the Image J software.

With `O=CCCCC=O` [Glutaraldehyde, reference compound], the “statistical analysis of opening angles (ANOVA)” value was “significantly different from all controls and analogs”.

In the case of `O=C(OC[C@H]1O[C@@H](OC(=O)c2cc(O)c(O)c(O)c2)[C@H](OC(=O)c2cc(O)c(O)c(O)c2)[C@@H]1OC(=O)c1cc(O)c(O)c(O)c1)c1cc(O)c(O)c(O)c1` [TG-ribose, polygalloyl ribose], the “statistical comparison of mean opening angles among analogs (FIG. 3)” value (Example 12, 2.49 mM, n=6 rings) is listed as “statistically significant lower opening angles”.

Consider polygalloyl maltose [OG-maltose], for which, under “Example 12, 2.49 mM, n=6 rings”, the “opening angle compared to the PBS subgroup (statistics)” value was “statistically significant differences, except for OG-maltose” and the “variability of opening angles relative to control samples” value is on record as “substantially reduced”.

As for polygalloyl-sucrose [OG-sucrose], the “variability of opening angles relative to control samples” value (Example 12, 2.49 mM, n=6 rings) is reported as “substantially reduced”.

For `O=C(OC[C@H]1O[C@@H](OC(=O)c2cc(O)c(O)c(O)c2)[C@H](OC(=O)c2cc(O)c(O)c(O)c2)[C@@H](OC(=O)c2cc(O)c(O)c(O)c2)[C@@H]1OC(=O)c1cc(O)c(O)c(O)c1)c1cc(O)c(O)c(O)c1` [β-PGG, pentagalloyl β-glucose, reference compound], the “statistical analysis of opening angles (ANOVA)” value is “significantly different from all controls and analogs”. The “statistical comparison of mean opening angles among analogs (FIG. 3)” value (Example 12, 2.49 mM, n=6 rings) is “not statistically different”.

Regarding `O=C(OC[C@@H]1O[C@@H](OC(=O)c2cc(O)c(O)c(O)c2)[C@H](OC(=O)c2cc(O)c(O)c(O)c2)[C@@H](OC(=O)c2cc(O)c(O)c(O)c2)[C@H]1OC(=O)c1cc(O)c(O)c(O)c1)c1cc(O)c(O)c(O)c1` [α-PGG, pentagalloyl α-glucose], the “statistical comparison of mean opening angles among analogs (FIG. 3)” value (Example 12, 2.49 mM, n=6 rings) is recorded as “not statistically different”.
